This is an account of results in patent publication US20240408081A1, “NOVEL SYNERGISTIC COMBINATIONS AND METHODS OF USE THEREOF FOR TREATING CANCERS” (UNIVERSITE DE BORDEAUX, priority 2021, published 2024).

The test system of data set [1] is NEM157i, SU-DIPG-IVi and NEM163i DMG cells. In words: Proliferation / cell viability assay (Sulforhodamine B) in DMG cell lines. The format is cell-based, human. The procedure: Cell growth was measured with the In vitro Toxicology Assay kit (Sulforhodamine B, Sigma Aldrich, Saint Quentin Fallavier, France) according to manufacturer's instructions. Cells were plated at a density of 2000 cells per well in 96-well plates in triplicates. Absorbance was measured at 565 nm using the CLARIOstar multiplate reader (BMG Labtech, Champigny-sur-Marne, France) at indicated time points.

Data set [2] deals with NEM157i and SU-DIPG-IVi DMG cells. In words: Apoptosis assay (Annexin V-PE / 7-AAD flow cytometry) in DMG cells. Format: cell-based, human. Conditions: 5 days of treatment. The source says: After exposure to drugs at indicated concentrations and times, cells were labeled with Annexin V-PE (BD Biosciences, Le Pont de Claix, France) and 7-AminoActinomycin D (7-AAD) (BD Bioscience) and analyzed using Flow Cytometry as described.

Data set [3] deals with DMG cell lines including primary BXdmg1 cells. Description: DMG spheroid formation assay. The format is cell-based, human. Conditions: 24 hours; GSK-126 20 μM for NEM157i and 15 μM for the others. How it is done: For spheroid formation assays, 10^4 cells were used per well in a 96-well plate. Volume of methylcellulose/medium/cells and inhibitors (10, 15 or 20 μM) mixture per well was 100 μL with a final concentration of methylcellulose at 0.5%. After rapid and gentle homogenization, the mixture was placed on a round-bottom cell culture microplate (U-shaped) treated to limit cell adhesion. After, spheroids were incubated in an incubator at 37° C. and 5% CO2 for 24 hours. Photos and films of spheroids were taken by an InCellis cell imager (Bertin instruments, Montigny-le-bretonneux, France).

In data set [4] the test system is SU-DIPG-IVi-Luc cells implanted in the brainstem. In words: Orthotopic SU-DIPG-IVi-Luc brainstem glioma model in NSG mice. Format: in vivo, NOD/LtSz-scid IL2R gamma (NSG) mice.
Method: For the mouse model, the immortalized SU-DIPG-IV line was used. SU-DIPG-IVi was transduced by a luciferase vector (Luc) with a MOI of 10. Two days after birth, 10^5 SU-DIPG-IVi-Luc cells in 2 μl were injected directly into the brainstem through the neck to a depth of 3 mm using a 2 μl NeuroSyringe (Hamilton Neuros, Dutscher, Bruxelles, Belgium) under anesthesia with 2% isoflurane and 50% oxygen enrichment. […] Tumor growth was evaluated non-invasively with anesthetized mice on a Biospace imager (Biospace Lab, Nesles la Vallée, France) 1-2 days after each treatment.
Prior to treatments, mice were micro-tattooed (Aramis kit, BiosebLab, France). Animals were weighed and then receive an i.p. injection in the lower right quadrant following IACUC recommendations. A 1 ml tuberculin syringe and a 26-gauge needle were used with an injection volume of 200 μl for a 30 g mouse (3 mg/ml), adjusted to actual weight each week. Treatment was done 3 times a week, starting at day 8. Tumor growth was evaluated non-invasively on a Biospace imager (Biospace Lab, Nesles la Vallée, France). The entire procedure was carried out on a heating mat at 37° C. The animals were shaved and anesthetized in sterile condition (under PSM-2) in boxes dedicated to imaging. […]
Data set [5] concerns Huh6 cells. In words: Cell viability assay (CellTiter 96 AQueous One / MTS) in Huh6. The format is cell-based, human. The procedure: (§1) For 2D culture, a total of 2,000 cells/well for Huh6 and 3,000 cells/well for HepG2 were seeded in 96-well microtiter plates. Cell growth was measured at 24 h, 48h, 72h or 96h after genetic manipulation and at 48h or 72h after drug treatment using the in vitro MTS assay Kit or Sulforhodamine B (SRB, Absorbance at 565 nm) assay (Sigma) following manufacturer's instructions. For 3D culture, spheroids were formed as described above and microplates were incubated in an IncuCyte® S3 live cell analysis system and scanned every 8 hours. For genetic manipulation, the lentiviral transductions or the gene depletions were done before the plating. For drug treatments, depending on the experiment and the drug, spheroids were treated at day 4 or 5 for 48h or 72h. Cell viability assay in spheroids was done using 1 μM calcein AM (BioLegend) and 2 μM ethidium homodimer 1 (Sigma) for 30 minutes at 37° C. Spheroids were imaged using an IncuCyte® S3 live cell analysis system. For all cell viability assays, drugs were used at half maximal inhibitory concentration (IC50).

Data set [6] relates to HepG2 cells. In words: Cell viability assay (CellTiter 96 AQueous One / MTS) in HepG2. Format: cell-based, human. The procedure:
as §1

In data set [7] the test system is Huh6 and HepG2 hepatoblastoma cells. In words: Growth and viability of hepatoblastoma cells (Huh6 and HepG2), 2D and 3D spheroid. The format is cell-based, human. The procedure:
as §1

Data set [8] relates to H3K27me3, HMGCR. In words: Western blots of H3K27me3 and HMGCR in hepatoblastoma cells. The format is cell-based, human. Conditions: Huh6 and HepG2. How it is done: Cells were lysed and total proteins were extracted 48 hours after treatment or 72 hours after genetic manipulation using a mixture of RIPA buffer (Sigma), protease inhibitors and phosphatase inhibitor cocktail (Roche). After protein quantification with BCA Protein Assays (ThermoFisher), 40 μg of total proteins were loaded in 4-15% pre-casted gels (Bio-Rad) for migration. Then, proteins were transferred onto a nitrocellulose membrane (Transblot® Turbo midi-size, Bio Rad). The membranes were blocked with 5% BSA or Odyssey blocking buffer (LI-COR Biosciences) and detected with the corresponding antibodies (Table 2). The revelation was performed by chemiluminescence using Fusion FX (Vilber Lourmat) and quantification was done using ImageJ software (National Institutes of Health, Bethesda, Maryland, USA).

Data set [9] concerns Huh6 and HepG2 cells. Description: Lipid droplets assay in hepatoblastoma cells. Format: cell-based, human. The procedure: The cells were plated in 6-well plate at a density of 250,000 cells per well. […] After 48 hours of treatment, the cells were fixed in 4% PFA for 15 minutes then stained with the red oil for 15 minutes at room temperature. Finally, cells were washed several times and scanned using InCellis microscope (Bertin Technologies, France).

Data set [10] relates to xenopus embryos. In words: Toxicological assay in Xenopus embryos. The format is in vivo. Conditions: treated from gastrula stage.
From the text: Embryos were left in solution until untreated control embryos reached stage 41.
The test system of data set [11] is Huh6 cells. In words: Huh6 tumor xenografts in NSG mice. Format: in vivo, NOD/LtSz-scid IL2R gamma null (NSG) mice. Conditions: intraperitoneal; GSK-126 50 mg/kg, ATR 20 mg/kg 3-times a week; cisplatin 1 mg/kg twice a week. How it is done:
NOD/LtSz-scid IL2R gamma null (NSG) mice were bred in standard conditions compliant with regulatory bodies (French government). Sterilized food and water were accessible ad libitum. One million of Huh6 cells in 50% of Matrigel were subcutaneously injected in a total volume of 100 μl in the right flank of 8- to 9-week-old female mice (26-32 g; APAFIS #32917-2021121316283534 v2, Agreement #B33063916, Ministère de l'Enseignement Supérieur, de la Recherche et de l'Innovation).
Tumor growth was monitored by caliper measurement until tumors reached an average volume of 250 mm3 (at day 12, see arrow). […] The vehicle (PBS with 5% DMSO) was injected 3-times a week. Tumor growth was monitored during 16 additional days until tumors control reached a size of 2000 mm3. Thus, all mice were euthanized. Blood was collected from all euthanatized mice and circulating ASAT, ALAT, creatinine, and urea were measured to evaluate the toxicity of the different treatments on the liver and kidneys.

In data set [12] the test system is patients with relapsed/refractory solid tumors and hematologic malignancies. Conditions: cited from earlier work.

`CC[C@H](C)n1cc(C)c2c(C(=O)NCc3c(C)cc(C)[nH]c3=O)cc(-c3ccc(N4CCNCC4)nc3)cc21` [GSK-126, 1-[(2S)-butan-2-yl]-N-[(4,6-dimethyl-2-oxo-1H-pyridin-3-yl)methyl]-3-methyl-6-[6-(1-piperazinyl)-3-pyridinyl]-4-indolecarboxamide]: the “effect of low dose on DMG cell growth” value in [1] (4 μM) was “does not affect”. For the same compound, the IC50 in data set [1] (Homo sapiens, three DMG cell lines, 72 h of treatment, read-out: IC50 (half maximal inhibitory concentration)) was 7.6 to 10.3 µM; in [5] (Homo sapiens, HuH-6), 6 µM; in [6] (Homo sapiens), 8 µM; in data set [7] (Homo sapiens, hepatoblastoma cells, 48 h) it was 6 to 8 µM. The “doses with significant growth inhibition” value in [1] (NEM157i and SU-DIPG-IVi) is on record as “above 6 μM”. For the same compound, the “doses with total growth inhibition” value in [1] (NEM157i and SU-DIPG-IVi) is reported as “above 25 μM”. For the same compound, the tumor cell apoptosis result in [2] is given as “increase in tumor cell apoptosis”. Further, in [3], the spheroid formation entry was “spheroid formation was affected”. Besides, the “tumor growth (bioluminescence)” value is “No significant differences” in data set [4] (GSK-126 6 mg/kg, Atorvastatin 10 mg/kg, after four treatments) and “significant growth reduction” in data set [4] (i.p. dose of 10 mg/kg, 3-times a week). Further, the IC25 dose in data set [5] stood at 3 µM; in [6], 4 µM. Also, the “sensitivity of Huh6 and HepG2 cells in presence of Simvastatin or Atorvastatin” value in data set [7] (72 h, 4 μM Simvastatin or 8 μM Atorvastatin) was “significantly increased (at least twice)”. For the same compound, the “trimethylation of histone H3 Lysine 27” value in data set [8] (GSK-126 at IC50) is “reduced”. Besides, the “expression of HMGCR” value in [8] is reported as “triggered”. Further, the synthesis of lipids entry in data set [9] is listed as “triggered”. In addition, in data set [10], the “toxic dose in xenopus embryos” value amounted to 1 mM. Besides, the “development of hepatoblastoma in mice (tumor volume)” value in data set [11] is “no effect”. The clinical activity entry in [12] (at the MTD) is reported as “inadequate clinical activity”. Further, the half-life entry in data set [12] (human, in vivo) is reported as “relatively short”. The “maximum tolerated dose (MTD)” value in [12] (twice weekly intravenous, 28 days (3 weeks on/1 week off)) is on record as 2,400 mg.
